The subject of assay [1] is ornithine decarboxylase (ODC). The conditions noted are these: qualitative; cited from earlier work.
For assay [2], the system named is ornithine decarboxylase (ODC). Nature of the assay: Inhibition of TPA induction of ornithine decarboxylase (ODC) (Table 2). The format is cell-based. The following applies: concentration which results in 80 per cent inhibition of the ODC induction activity by TPA. The source says: The retinoid-like activity of these compounds is confirmed through the classic measure of retinoic acid activity involving the effects of retinoic acid on ornithine decarboxylase. The original work on the correlation between retinoic acid and decrease in cell proliferation was done by Verma & Boutwell, Cancer Research, 1977, 37,2196-2201. That reference discloses that ornithine decarboxylase (ODC) activity increased precedent to polyamine biosynthesis. It has been established elsewhere that increases. in polyamine synthesis can be correlated or associated with cellular proliferation. Thus, if ODC activity could be inhibited, cell hyperproliferation could be modulated. […] IC80 is that concentration of the test compound (expresed in nanomolar (nmol)) which results in 80 per cent inhibition of the ODC induction activity by TPA.

As for `CCCCCCCCCCCCCC(=O)O[C@@H]1[C@@H](C)[C@@]2(O)[C@@H](C=C(CO)C[C@]3(O)C(=O)C(C)=C[C@@H]23)[C@@H]2C(C)(C)[C@]12OC(C)=O` [12-0-tetradecanoylphorbol-13-acetate], the “induction of ODC activity” value in assay [1] is “induces ODC activity”. The term IC80 denotes the concentration needed for an effect of 80%. High values mean weaker potency, low ones greater potency. With `CCOC(=O)c1ccc(C#Cc2ccc3c(c2)C(C)(C)CC(SC)=N3)cc1` [Compound 9, Ethyl 4-[(4,4-dimethyl-2-methylthio-3,4-dihydro-6-quinolinyl)ethynyl]benzoate], it took 29 nM to reach the 80% level in assay [2] (IC80).

Take `CCOC(=O)c1ccc(C#Cc2ccc3c(c2)C(C)(C)CC(=S)N3C(C)C)cc1` [Compound 7, Ethyl 4-[(4,4-dimethyl-2-thio-1,2,3,4-tetrahydro-1-iso-propyl-6-quinolinyl)ethynyl]benzoate]: in assay [2], the IC80 is 5.5 nM. In assay [2], `CCOC(=O)c1ccc(C#Cc2ccc3c(c2)C(C)(C)CC(=S)N3)cc1` [Compound 8, Ethyl 4-[(4,4-dimethyl-2-thio-1,2,3,4-tetrahydro-6quinolinyl)ethynyl]benzoate] registered an IC80 of 54 nM. In turn, `CCOC(=O)c1ccc(C#Cc2ccc3c(c2)C(C)(C)CC(=O)N3C(C)C)cc1` [Compound 5] registered an IC80 in assay [2] of 6.4 nM. On to `CC1=C(/C=C/C(C)=C/C=C/C(C)=C/C(=O)O)C(C)(C)CCC1` [Retinoic acid], for which the “inhibition of TPA induction of ODC activity” value in assay [1] is reported as “inhibits this induction of ODC activity by TPA”.

In assay [2], `CCCCCCCSC1=Nc2ccc(C#Cc3ccc(C(=O)OCC)cc3)cc2C(C)(C)C1` [Compound 10, Ethyl 4-[(4,4-dimethyl-2-heptylthio-3,4-dihydro-6-quinolinyl)ethynyl]benzoate] returned an IC80 of over 60 nM. Still for that read-out and setting: next, `CCOC(=O)c1ccc(C#Cc2ccc3c(c2)C(C)(C)CC(OC(C)C)=N3)cc1` [Compound 6, Ethyl 4-[(4,4-dimethyl-2-isopropoxy-3,4-dihydro-6-quinolinyl)ethynyl]benzoate]: over 100 nM.

The values above are taken from patent publication US5616712A, “Acetylenes disubstituted with a phenyl or heteroaryl group and a 2-thio-1,2,3,4-tetrahdroquinolinyl, 2-alkylthio-3,4-dihydroquinolinyl or 2-alkoxy-3,4-dihydroquinolinyl group having retinoid-like biological activity” (Allergan, priority 1995, dated 1997).
